{"source": "patent US20050079180A1", "about": "“Manipulatin of oocyte maturation and male germ cell survival” (priority 2003, published 2005)", "key": {"[1]": {"test_system": "cumulus-enclosed oocytes", "test": "Germinal vesicle breakdown in cultured cumulus-enclosed oocytes", "assay_type": "cell-based, rat", "settings": "for oocyte maturation (germinal vesicle breakdown): cultured cumulus-enclosed oocytes from preovulatory follicles, FIG. 1D", "protocol": "(§1) Cumulus-enclosed oocytes (CEO) were collected and cultured as described (Vaknin et al. PMID: 11133687). Briefly, female rats at 26 d of age were injected with 15 IU pregnant mare serum gonadotropin (PMSG). After 48-50 h, ovaries were dissected in Leivovitz's L-15 medium (Invitrogen Corp., Carlsbad, Calif.) supplemented with 5% fetal bovine serum and 100 μg/ml of penicillin and streptomycin. The CEOs were collected by puncturing the largest ovarian follicles in the L15 medium containing 0.25 mM of MIX within 20 min, washed twice in L15 medium without MIX and transfer to test medium. The CEO were cultured with or without different doses of rat INSL3 in L15 medium without both FBS and IBMX. For controls, the CEOs were cultured in L15 medium with IBMX. At the end of culture, the occurrence of germinal vesicle breakdown (GVBD) in oocyte was examined after removing cumulus cells surrounding CEO by a small-bore pipette under Hoffman modulation contrast microscopy (Nikon Inc., Tokyo, Japan). For preovulatory follicles, follicles were excised from the ovary after PMSG treatment for 48 h. The follicles, 20-30 per vial, were cultured with or without different doses of rat INSL3 or LH in L15 medium without FBS. The vials were flushed at the start of the culture with O2/N2 (1/1) and cultured at 37C with gently shaking. After culture, individual CEO was dissected from each follicle to examine the occurrence of GVBD. For cAMP determination, 20 to 30 denuded oocytes were cultured with or without rat INSL3 (10 nM) in L15 medium containing 10 μM of cilostamide with or without 50 μM of forskolin. After treatment, oocytes were collected in 2 μl of medium, frozen and thawed to break the cells before acetylation of samples with triethylamine and acetic anhydride (3:1). Intra-oocyte cyclic AMP levels were determined by radioimmunoassay as previously described (Davoren, Hsuch, 1985)."}, "[2]": {"test_system": "preovulatory follicles", "test": "Oocyte maturation (GVBD) in cultured intact preovulatory follicles", "assay_type": "cell-based, rat", "protocol": "as §1, with “Briefly,” for “Cumulus-enclosed oocytes (CEO) were collected and cultured as described (Vaknin et al. PMID: 11133687). Briefly,”, “For preovulatory follicles, follicles were excised from the ovary after PMSG treatment for 48 h. The follicles, 20-30 per vial, were cultured with or without different doses of rat INSL3 or LH in L15 medium without FBS.” left out, “(3:1).” for “(3:1). Intra-oocyte cyclic AMP levels were determined by radioimmunoassay as previously described (Davoren, Hsuch, 1985).”"}, "[3]": {"test_system": "seminiferous tubular cells", "test": "cAMP production by seminiferous tubular cells", "assay_type": "cell-based, rat", "settings": "FIG. 2D", "experimental": "Seminiferous tubular cells were treated with different hormones or forskolin (FSK) for 12 h before cAMP determination. Some cells were also pretreated with PT before hormonal treatment (filled circles) to suppress Gi activity. B: basal.\nSeminiferous tubular cells were isolated by the method of Nagao (1989) In Vitro Cell Dev Biol 25:1088-1098, with modifications. Briefly, testes were decapsulated and incubated for 15 minutes in PBS containing 0.25% collagenase with occasional shaking. After collecting interstitial cells released from the preparation, seminiferous tubules were washed, and incubated with 0.25% trypsin to disperse tubular cells. The resulting cell suspension was filtered through 100 μm nylon mesh to remove cell aggregates and tissue debris, after which the tubular cells were collected by centrifugation.\nTotal cAMP in each well was measured in triplicate with primary cultured cells by a specific radioimmunoassay as previously described by Davoren and Hsuch (1985) Biol Reprod 33:37-52. All experiments were repeated at least four times."}, "[4]": {"test_system": "oocytes of preovulatory follicles", "test": "In vivo oocyte maturation after intrabursal injection in PMSG-primed rats", "parameters": "species or system rat", "settings": "FIG. 3C", "protocol": "To study the effect of INSL3 on oocyte maturation in vivo, intrabursal injection was performed (Vaknin et al. PMID: 11133687). Immature PMSG-treated rats were lightly anesthetized by ether, and one of the ovaries was exteriorized through a small lumbosacral incision. Rat INSL3, dissolved in 100 μl of PBS, was injected through a 30-gauge needle threaded into the ovarian bursa via the adjoining fat pad. After injection, the ovary was replaced into the abdominal cavity, and skin was clipped. Eight hours later, CEOs were collected by puncturing the largest ovarian follicles to examine the occurrence of oocyte GVBD."}, "[5]": {"test_system": "testis", "assay_type": "in vivo, rat", "protocol": "C) Analysis of apoptotic DNA fragmentation in testes using 3′-end DNA labeling with the terminal transferase, followed by gel fractionation and autoradiography. D) In situ staining of apoptotic DNA fragmentation in seminiferous tubules using the TUNNEL method.\n(§2) Male Sprague-Dawley rats at 28 days of age were treated subcutaneously with GnRH antagonist (250 μg/kg/day) to suppress pituitary gonadotropin secretion. […] Animals were killed 5 days after initial treatment and organ weight determined. Testes were stored at −70° C. before RNA or DNA extraction or fixed in Bouin's solution for in situ labeling of DNA ends."}, "[6]": {"test_system": "male germ cells", "test": "Gonadotropin deprivation model: testis apoptotic DNA fragmentation", "assay_type": "in vivo, rat", "protocol": "as §2\nDNA from whole testis was isolated and quantitated with spectrophotometry at 260 nm. Aliquots of DNA (500 ng) from each sample were labeled at 3′-ends with 32P-dideoxy-ATP (3,000 Ci/mmol: Amersham. Arlington Heights, Ill.) using terminal transferase (25 U/sample; Boehringey-Mannheim, Indianapolis, Ind.) as described. Labeled samples were fractionated through 2% agarose gels. After electrophoresis, gels were dried for 2 h in a slab-gel dryer without heat and exposed to Kodak X-OMAT AR films (Eastman Kodak Co., Rochester, N.Y.) at −70 C. After autoradiography, portions of each lane corresponding to DNA less than 10 kilobases (kb) were isolated and counted in a y-spectrometer for estimating the degree of intenucleosomal DNA fragmentation. For in situ DNA 3′-end labeling, fixed testicular tissues were embedded in paraffin, and cut in 3 μm sections. To detect apoptotic DNA fragmentation, the in situ cell death detection kit (Roche Diagnostics, Mannheim, Germany) was used according to manufacturer's instruction and sections counterstained with hematoxylin."}, "[7]": {"biological_target": "T1, recombinant LGR8 (Homo sapiens, UniProt Q8WXD0)", "T1 construct": "expressed in transfected cells; host or cells: human 293T cells, calcium phosphate transfection", "T1 sequence (Q8WXD0 whole entry)": "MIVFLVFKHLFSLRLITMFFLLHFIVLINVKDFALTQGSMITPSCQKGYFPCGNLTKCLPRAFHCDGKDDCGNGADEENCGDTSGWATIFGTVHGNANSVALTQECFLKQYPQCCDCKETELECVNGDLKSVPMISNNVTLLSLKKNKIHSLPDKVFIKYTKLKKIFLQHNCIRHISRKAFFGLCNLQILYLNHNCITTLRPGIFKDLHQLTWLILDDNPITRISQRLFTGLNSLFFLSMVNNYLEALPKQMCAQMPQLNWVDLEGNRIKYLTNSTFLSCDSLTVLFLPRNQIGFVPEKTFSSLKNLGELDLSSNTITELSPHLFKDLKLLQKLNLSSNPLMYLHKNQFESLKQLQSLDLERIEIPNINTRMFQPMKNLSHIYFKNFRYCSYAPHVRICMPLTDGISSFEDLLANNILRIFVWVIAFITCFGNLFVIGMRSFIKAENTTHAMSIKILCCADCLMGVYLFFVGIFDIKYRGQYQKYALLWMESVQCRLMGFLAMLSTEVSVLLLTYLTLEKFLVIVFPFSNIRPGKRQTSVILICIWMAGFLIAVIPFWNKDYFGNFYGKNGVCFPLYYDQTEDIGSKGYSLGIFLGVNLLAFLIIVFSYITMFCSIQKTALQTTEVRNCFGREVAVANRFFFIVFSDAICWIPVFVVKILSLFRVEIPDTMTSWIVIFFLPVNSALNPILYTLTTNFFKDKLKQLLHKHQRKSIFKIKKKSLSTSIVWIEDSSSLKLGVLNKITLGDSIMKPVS", "settings": "293T cells expressing recombinant LGR8; cited from earlier work"}, "[8]": {"test_system": "gubernacular cells", "settings": "cited from earlier work"}, "[9]": {"test_system": "INSL3 message", "test": "Gonadotropin deprivation model: testis INSL3 mRNA (Northern blot)", "assay_type": "in vivo, rat", "settings": "FIG. 4B", "protocol": "as §2"}, "[10]": {"test_system": "oocyte", "test": "Gonadotropin induction of ovulation with pertussis toxin co-treatment"}}, "note": "Where a SMILES comes first, the peptide text is derived from it. Where no end group is shown, it is not given here. [ ]: non-standard residue; d: D form. d(hArg(Et2)) = CCN=C(NCC)NCCCC[C@@H](N)C(=O)O; hArg(Et2) = CCN=C(NCC)NCCCC[C@H](N)C(=O)O; dPhe(4-Cl) = N[C@H](Cc1ccc(Cl)cc1)C(=O)O; d2Nal = N[C@H](Cc1ccc2ccccc2c1)C(=O)O; d3Pal = N[C@H](Cc1cccnc1)C(=O)O"}
{"molecule": "CC(C)Cn1c(=O)n(C)c(=O)c2[nH]cnc21", "note": "[MIX, reference compound]", "values": [{"measurement": "oocyte maturation (germinal vesicle breakdown)", "setting": "[1]", "result": "completely blocked oocyte maturation"}]}
{"molecule": "INSL3: Insulin-like hormone superfamily member with B chain and A chain; rat INSL3 chemically synthesized; ligand of LGR8 (chain 1 QPPEARAKLCGHHLVRALVRVCGGPRWSPEA; chain 2 SVATNAVHRCCLTGCTQQDLLGLCPH; ends and bridges not checked; cysteine pairing not given here)", "values": [{"measurement": "oocyte maturation (germinal vesicle breakdown)", "setting": "[1]", "result": "further augmented oocyte maturation in a dose-dependent manner"}, {"measurement": "time after culture at which augmentation of oocyte maturation was evident", "setting": "[1]; time-course, cumulus-enclosed oocytes, FIG. 1E", "result": 2, "unit": "h"}, {"measurement": "oocyte maturation", "setting": "[2]; intact preovulatory follicles, FIG. 1F", "result": "induced oocyte maturation in a dose-dependent manner"}, {"measurement": "basal cAMP production", "setting": "[3]; INSL3 alone, 12 h", "result": "basal cAMP production was not affected"}, {"measurement": "cAMP increases induced by forskolin", "setting": "[3]; INSL3 with forskolin, 12 h", "result": "prevented cAMP increases induced by forskolin in a dose-dependent manner"}, {"measurement": "cAMP levels stimulated by FSH", "setting": "[3]; co-treatment of INSL3 with FSH", "result": "did not alter cAMP levels"}, {"measurement": "oocyte maturation (germinal vesicle breakdown in preovulatory follicles)", "setting": "[4]; 8 h after intrabursal injection", "result": "induced oocyte maturation"}, {"measurement": "follicle rupture", "setting": "[4]; intrabursal treatment", "result": "not follicle rupture"}, {"measurement": "effect on testis weight decrease caused by GnRH antagonist", "setting": "[5]; co-treatment with GnRH antagonist, five days, FIG. 4A", "result": "partially blocked"}, {"measurement": "apoptosis induced by GnRH antagonist (internucleosomal DNA fragmentation)", "setting": "[6]; co-treatment with GnRH antagonist, FIG. 4C", "result": "blocked apoptosis"}, {"measurement": "in situ staining of DNA fragments in seminiferous tubules", "setting": "[6]; co-treatment with GnRH antagonist, FIG. 4D panel f", "result": "blocked the apoptosis-inducing action of the GnRH antagonist"}, {"measurement": "cAMP production", "setting": "[7]", "result": "stimulatory effects"}, {"measurement": "cAMP production", "setting": "[8]", "result": "stimulatory effects"}]}
{"molecule": "CCN=C(NCC)NCCCC[C@H](NC(=O)[C@H](CC(C)C)NC(=O)[C@@H](CCCCNC(=NCC)NCC)NC(=O)[C@H](Cc1ccc(O)cc1)NC(=O)[C@H](CO)NC(=O)[C@@H](Cc1cccnc1)NC(=O)[C@@H](Cc1ccc(Cl)cc1)NC(=O)[C@@H](Cc1ccc2ccccc2c1)NC(C)=O)C(=O)N1CCC[C@H]1C(=O)N[C@H](C)C(N)=O", "note": "[GnRH antagonist, ganirelix acetate] (Ac-[d2Nal][dPhe(4-Cl)][d3Pal]SY[d(hArg(Et2))]L[hArg(Et2)]P[dA]-NH2)", "values": [{"measurement": "testis weight", "setting": "[5]; immature rats, GnRH antagonist alone, five days, FIG. 4A", "result": "decreased testis weight"}, {"measurement": "weight change in kidney or heart", "setting": "[5]; rat, in vivo", "result": "no weight change in kidney or heart was detected"}, {"measurement": "testis INSL3 message levels", "setting": "[9]", "result": "decreased INSL3 message levels"}, {"measurement": "in situ staining of DNA fragments in seminiferous tubules", "setting": "[6]; GnRH antagonist alone, FIG. 4D panel e", "result": "the majority of tubules showed labeled cells corresponding to meiotic pachytene spermatocytes and postmeiotic spermatids"}, {"measurement": "apoptotic DNA fragmentation in testis", "setting": "[6]; GnRH antagonist alone, internucleosomal DNA fragmentation, FIG. 4C", "result": "increased apoptotic DNA fragmentation"}]}
{"molecule": "pertussis toxin", "values": [{"measurement": "effect on INSL3 induction of oocyte maturation", "setting": "[2]; pertussis toxin with INSL3, FIG. 1G", "result": "partially blocked the INSL3 induction of oocyte maturation"}, {"measurement": "effect on LH induction of oocyte maturation", "setting": "[2]; pertussis toxin with LH, FIG. 1G", "result": "partially blocked the LH induction of oocyte maturation at lower (50 and 100 ng/ml), but not higher, doses of LH"}, {"measurement": "effect on the suppressive effect of INSL3 on cAMP", "setting": "[3]; pertussis toxin pretreatment", "result": "suppressive effect of INSL3 was blocked"}, {"measurement": "follicle rupture", "setting": "[10]", "result": "without affecting follicle rupture"}, {"measurement": "gonadotropin induction of oocyte maturation", "setting": "[10]", "result": "blocks the gonadotropin induction of oocyte maturation"}]}
